Measured values taken from patent US5773451A, “Substituted arylthioalkylthiopyridines” (BYK Gulden Lomberg Chemische Fabrik GmbH, priority 1993, dated 1998).
≈ marks a conversion by molar mass, not a printed value.

Test system: Helicobacter pylori
Assay: activity against Helicobacter pylori (MIC 50, Columbia agar, growth period of 4 days)
Type: cell-based
Conditions: 96 h, Columbia agar (Oxoid), method of Iwahi et al., approximate values, read-out: Approx. MIC 50 value
Description: The compounds of formula I have been investigated in respect of their activity against Helicobacter pylori in accordance with the method described by Tomoyuki Iwahi et al. (Antimicrobial Agents and Chemo-therapy, 1991, 490-496) using Columbia agar (Oxoid) over a growth period of 4 days. The approximate MIC 50 values listed in the following Table 2 resulted from these tests for the compounds studied (the numbers stated for the compounds agree with the compound numbers in the description).

Structure (SMILES) | MIC50 [µg/mL]
Cc1c(SCCCSc2nccs2)ccnc1CSc1nc2ccccc2[nH]1 [Compound 9, 2-{[[3-Methyl-4-(3-(thiazol-2-yl-thio)-propylthio)2-pyridinyl]methyl]thio}-1H-benzimidazole] | ~0.05 (≈ 0.112 µM)
Cc1c(SCCCCSc2nnnn2C)ccnc1CSc1nc2ccccc2[nH]1 [Compound 24, 2-{[[3-Methyl-4-(4-(1-methyl-tetrazol-5-yl-thio)-butylthio)-2-pyridinyl]methyl]thio}-1H-benzimidazole] | ~0.05 (≈ 0.109 µM)
Cc1c(SCCCSc2nccn2C)ccnc1CSc1nc2ccccc2[nH]1 [Compound 3, 2-{[[3-Methyl-4-(3-(1-methylimidazol-2-yl-thio)-propylthio)-2-pyridinyl]methyl]thio}-1H-benzimidazole] | ~0.05 (≈ 0.113 µM)
Cc1c(SCCCSc2ncccn2)ccnc1CSc1nc2ccccc2[nH]1 [Compound 11, 2-{[[3-Methyl-4-(3-(pyrimidin-2-yl-thio)-propylthio)-2-pyridinyl]methyl]thio}-1H-benzimidazole] | ~0.05 (≈ 0.114 µM)
Cc1ccnc(SCCCSc2ccnc(CSc3nc4ccccc4[nH]3)c2C)n1 [Compound 16, 2-{[[3-Methyl-4-[3-(4-methyl-pyrimidine-2-yl-thio)-propylthio]-2-pyridinyl]methyl]thio}-1H-benzimidazole] | ~0.05 (≈ 0.11 µM)
Cc1c(SCCCSc2ccccc2)ccnc1CSc1nc2ccccc2[nH]1 [Compound 13] | ~0.05 (≈ 0.114 µM)
Cc1nnc(SCCCSc2ccnc(CSc3nc4ccccc4[nH]3)c2C)s1 [Compound 1] | ~0.1 (≈ 0.218 µM)
Cc1c(SCCCSc2nnnn2C)ccnc1CSc1nc2ccccc2[nH]1 [Compound 8, 2-{[[3-Methyl-4-(3-(1-methyl-tetrazol-5-yl-thio)-propylthio)-2-pyridinyl]methyl]thio}-1H-benzimidazole] | ~0.05 (≈ 0.113 µM)
Cc1c(SCCCSc2nncs2)ccnc1CSc1nc2ccccc2[nH]1.Cl.Cl.Cl [Compound 18, 2-{[[3-Methyl-4-(3-(1,3,4-thiadiazol-2-yl-thio)-propylthio)-2-pyridinyl]methyl]thio}-1H-benzimidazole trihydrochloride] | ~0.05
Cc1c(SCCCSc2nc3ccccc3[nH]2)ccnc1CSc1nc2ccccc2[nH]1 [Compound 12] | ~0.05 (≈ 0.105 µM)
Cc1c(SCCCSc2ccccn2)ccnc1CSc1nc2ccccc2[nH]1 [Compound 10, 2-{[[3-Methyl-4-(3-(pyridin-2-yl-thio)-propylthio)-2-pyridinyl]methyl]thio}-1H-benzimidazole] | ~0.05 (≈ 0.114 µM)
Cc1c(SCCCSc2nnc(N)s2)ccnc1CSc1nc2ccccc2[nH]1 [Compound 5, 2-{[[4-[3-(5-Amino-1,3,4-thiadiazol-2-yl-thio)-propylthio]-3-methyl-2-pyridinyl]methyl]thio}-1H-benzimidazole] | ~0.5 (≈ 1.09 µM)
Cc1c(SCCCSc2ccncc2)ccnc1CSc1nc2ccccc2[nH]1 [Compound 19, 2-{[[3-Methyl-4-(3-(pyridin-4-yl-thio)-propylthio)-2-pyridinyl]methyl]thio}-1H-benzimidazole] | ~0.05 (≈ 0.114 µM)
Cc1c(SCCCSc2ncc[nH]2)ccnc1CSc1nc2ccccc2[nH]1 [Compound 6, 2-{[[4-[3-Imidazol-2-yl-thio-propylthio]-3-methyl-2-pyridinyl]methyl]thio}-1H-benzimidazole] | ~0.1 (≈ 0.234 µM)
Cc1c(SCCCSc2nncn2C)ccnc1CSc1nc2ccccc2[nH]1 [Compound 2, 2-{[[3-Methyl-4-(3-(4-methyl-1,2,4-triazol-3-yl-thio)-propylthio)-2-pyridinyl]methyl]thio}-1H-benzimidazole] | ~0.05 (≈ 0.113 µM)
